Patent US5366983A, “Use of quaternary ammonium compounds to remove salmonella contamination from meat products” (The Board of Trustees of The University of Arkansas, priority 1992, dated 1994)
Where “and” joins values, the source holds several entries; their conditions need not be identical. Equal values may be shown once. Entries after “also recorded” stand apart in the source; their conditions may differ. Read-outs that look alike come from different tables or passages of the source.

How the values were obtained:
[1] = tested on: Salmonella typhimurium ATCC 14028 attached to human buccal epithelial cells; assay: microbe, parasite or virus in culture; type: cell-based; details: for adherence, mean value of attached bacteria: Table A-3
Procedure: Additional studies on the detachment of Salmonella typhimurium from human buccal epithelial cells were conducted.
S. typhimurium ATCC 14028 was grown in nutrient broth (BBL Microbiology system, Cockeysville, Md.) for 16 hours at 37° C. The cells were centrifuged and washed twice with 0.008 M phosphate buffered saline (PBS, at pH 7.2) at 4500 rpm for 10 minutes. The last suspension was diluted in PBS to obtain a cell concentration 0.5 to 1×10^9 cells/ml using spectrophotometric measurement. Human epithelial cells were obtained by swabbing the buccal surface of a healthy, nonsmoking donor. […] The number of living cells was estimated and the suspension was diluted to 0.5 to 1×10^5 cells/ml.
The suspension of the human buccal cells was mixed with an equal volume of the bacterial suspension (3.0 ml), or PBS (0.8 ml) in 10 ml Erlenmeyer flasks. Contact was allowed for 1.5 hours at 35° C. under agitation. After incubation, 1.0 ml of each suspension was transferred into an Eppendorff vial, centrifuged at 3000 rpm for 10 minutes, and washed with PBS. The cells were treated with 1.0 ml PBS or 1.0 ml of the test chemical solution. Treatment was performed by suspending, gently vortexing, and centrifuging at 1500 rpm for 10 minutes. After the treatment, the cells were washed and placed on microscopic slides for examination.
EC50 represents the inverse measurement of the potency of a compound. EC50 values were determined by a nonlinear regression of the detachment effect versus the cationic surfactant concentration data from Table A-3.

[2] = tested on: Salmonella typhimurium on chicken skin; assay: Effect of surfactants on Salmonella attached to chicken skin, drumsticks (Tables F1-F4); details: 25° C.
Procedure: The following experiments utilizing chicken legs were conducted to determine the killing potential of a variety of surfactants against Salmonella on the skin and free in solutions. To this end, chicken legs obtained from the Department of Agriculture at the University of Arkansas, Fayetteville, were incubated for thirty minutes at room temperature with a 1:5000 dilution of Salmonella typhimurium. The chicken legs were removed five at a time and then rinsed twice in tap water to remove the unattached and excess Salmonella. The rinse water was sampled, diluted, and then plated onto XLD pour plates. […] The chicken legs were then removed and rinsed twice in tap water to remove the released Salmonella and excess chemicals. Rinses were then sampled, diluted, and then plated onto XLD pour plates.
The chicken legs were then individually washed with 100 ml sterile double distilled water, and then shaken fifty times. Samples of the wash H2 O were diluted and plated onto XLD pour plates. The chicken legs were further swabbed after the washing step above. The swabs were then plated onto the XLD plates. A set of wash samples were enriched with TT Broth Base Hajna and then plated onto XLD plates.
All of the samples were plated in 1 ml aliquots onto XLD pour plates. A positive control sample incubated in sterile double distilled water at 4° C. was run for each of the aforementioned conditions. Treatments occurred at both 4° C. and 25° C. The data is reported as the mean number of CFU/ml. The ratio in the table represents the number of chicken legs out of a sample of ten chicken legs producing the notated number of colonies, as indicated by the +, ++, +++, or ++++.

[3] = tested on: Salmonella typhimurium ATCC 14028 attached to human buccal epithelial cells; type: cell-based
Procedure: Studies were conducted on the attachment of Salmonella typhimurium to human buccal epithelial cells using the modified procedure of Boussard et al., International J. Pharmaceutics 53: 253-256 (1989). In this study, the activities of cationic and anionic surfactant compounds as well as certain chelating agents were compared on the detachment of S. typhimurium from epithelial cells.
To this end, bacteria were grown on nutrient agar for 16 hours at 37° C. The cells were suspended in 0.008 M phosphate buffered saline (PBS) at pH 7.2 and washed two times at 4500 rpm for 10 minutes. The last suspension was diluted in PBS to obtain a cell concentration of 0.5 to 1×10^9 cells/ml. Human epithelial cells were obtained by swabbing the buccal surface of a healthy, nonsmoking donor. […] The number of living cells was estimated and the suspension diluted to 0.5 to 1×10^5 cells/ml.
Next, the suspension of the human buccal cells was mixed with an equal volume of the bacterial suspension (3.0 ml), or PBS (0.8 ml). Contact was allowed for 1.5 hours at 35° C. under agitation. The mixtures were then centrifuged for 10 minutes at 4500 rpm. Each suspension, 1.0 ml, was transferred into Eppendorf vials and washed with PBS at 1500 rpm for 10 minutes. After the washing, the cells were treated with 1.0 ml PBS or 1.0 ml of the test chemical solution. Treatment was performed by suspending and vortexing on a low speed for 30 seconds followed by centrifugation at 1500 rpm for 10 minutes.
After the treatment, the cells were washed once with PBS and then 20 μl of erythrosin B was added to each vial. The suspension was centrifuged at 1500 rpm for 10 minutes, and the cells were washed twice under the same conditions. The final pellet was suspended in 300 μl of PBS. This suspension was spread out onto microscope slides and dried overnight at room temperature. After counter staining with methylene blue, the slides were microscopically examined under oil immersion.

[4] = tested on: Salmonella typhimurium ATCC 14028; assay: Effect on viability of Salmonella in suspension (Tables D-1 to D-3); type: cell-based
Procedure: EC50 values for four of the compounds were calculated from the bactericidal activity of the compounds as a function of molar concentration by a nonlinear regression algorithm.
In addition to the quaternary ammonium compounds, the antimicrobial activities of chelating agents Na2 -EDTA and EGTA were investigated. Na2 -EDTA was purchased from the Sigma Chemical Company (St. Louis, Mo.). Na2 -EDTA was dissolved in 0.04 M PPB prior to the assay and further dilutions were made in the same buffer.
EGTA was purchased from the Aldrich Chemical Company (Milwaukee, Wis.). EGTA was dissolved in 0.04 M PPB according to the procedure described by Harafuji and Ogawa (J. Biochem. 87:1305-1312 (1980)). After heating EGTA for 15 minutes at 80° C., the pH was adjusted to 7.0 by addition of NaOH. EGTA was filter-sterilized using a 0.2 μm Acro disc filter (Gelman Sciences; Ann Arbor, Mich.) prior to the assay. Further dilutions were made in sterile PPB.

[5] = tested on: Salmonella typhimurium ATCC 14028; assay: Minimum growth inhibitory concentration, macrodilution; type: cell-based; details: Mueler Hinton broth, macrodilution (NCCLS)
Procedure: Minimum growth inhibitory concentrations (MICs) of quaternary ammonium compounds and Na2 -EDTA for Salmonella were determined using Mueler Hinton broth (BBL Microbiology system, Cockeysville, Md.) and by the macrodilution method established by the National Committee for Clinical Laboratory Standards (NCCLS). Escherichia coli ATCC 25922 and Staphylococcus aureus ATCC 29213 were included in each assay as reference strains.

CCCCCCCCCCCCCCCC[N+](C)(C)C.[Br-] [HTMAB, hexadecyltrimethylammonium bromide]
adherence, mean value of attached bacteria ([1]; 100 ug/ml): 82 ± 35 | adherence, mean value of attached bacteria ([1]; 175 ug/ml): 57 ± 33 | adherence, mean value of attached bacteria ([1]; 250 ug/ml): 33 ± 19 | EC50 ([1]; Salmonella enterica, Epithelial cell, read-out: EC50 (±SD), detachment): 333 ± 14 µM | Enrichment, chicken legs out of ten ([2]; 0.1%): 5/10 | Rinse H2O ([2]; 0.1%): + (1-10) | Surfactant Solution ([2]; 0.1%): 0 CFU/ml | Swabs, chicken legs producing the notated number of colonies ([2]; 0.1%): 6/10 | Swabs, colonies ([2]; 0.1%): + (1-10) | Wash H2O, colonies ([2]; 0.1%): 0 CFU/ml | Enrichment, chicken legs out of ten ([2]; 1.0%): 0/10 | Rinse H2O ([2]; 1.0%): 0 CFU/ml | Surfactant Solution ([2]; 1.0%): 0 CFU/ml | Swabs, chicken legs producing the notated number of colonies ([2]; 1.0%): 3/10 | Swabs, colonies ([2]; 1.0%): + (1-10) | Wash H2O, colonies ([2]; 1.0%): 0 CFU/ml | Enrichment, chicken legs out of ten ([2]; .01%): 5/10 | Rinse H2O ([2]; .01%): + (1-10) | Surfactant Solution ([2]; .01%): 0 CFU/ml | Swabs, chicken legs producing the notated number of colonies ([2]; .01%): 9/10 | Swabs, colonies ([2]; .01%): + (1-10) | Wash H2O, chicken legs producing the notated number of colonies ([2]; .01%): 10/10 | Wash H2O, colonies ([2]; .01%): ++ (11-100) | adherence, mean value of attached bacteria ([3]; 5 ug/ml, Table A-1): 49 ± 21 | adherence, mean value of attached bacteria ([3]; 50 ug/ml, Table A-1): 48 ± 20 | cytotoxicity to buccal epithelial cells ([3]; 500 ug/ml, Table A-1): cytotoxic | bacterial viability ([4]; 10 ug/ml, Table D-1): 1.06 ± 0.08 × 10^9 CFU/ml and 1.67 ± 0.12 × 10^9 CFU/ml | bacterial viability ([4]; 20 ug/ml, Table D-1): 3.23 ± 0.38 × 10^8 CFU/ml and 6.35 ± 1.03 × 10^8 CFU/ml | EC50 ([4]; Salmonella enterica, read-out: EC50 (±SD), effect on viability in suspension): 48 ± 0.03 µM | MIC [5]: 60 µg/mL | MIC ([5]; Salmonella enterica): 64 µg/mL

O=C(O)CN(CCN(CC(=O)O)CC(=O)O)CC(=O)O [Na2 -EDTA, disodium ethylenectiaminetetraacetate, reference compound]
adherence, mean value of attached bacteria ([3]; 500 ug/ml, Table A-2): 43 ± 21 | adherence, mean value of attached bacteria ([3]; 1250 ug/ml, Table A-2): 22 ± 12 | adherence, mean value of attached bacteria ([3]; 2500 ug/ml, Table A-2): 35 ± 18 | adherence, mean value of attached bacteria ([3]; 10,000 ug/ml, Table A-2): 31 ± 14 | effect on bacteria attached to the epithelial cells (in words) ([3]; chelating agents, Na2-EDTA at 1250 μg/ml): highly effective | bacterial viability ([4]; 1,250 μg/ml, Table D-3): 9.48 ± 0.63 × 10^8 CFU/ml | bacterial viability ([4]; 2,500 μg/ml, Table D-3): 9.68 ± 0.16 × 10^8 CFU/ml | bacterial viability ([4]; 5,000 μg/ml, Table D-3): 9.89 ± 0.37 × 10^8 CFU/ml | bactericidal effect against S. typhimurium (in words) ([4]; viability testing in suspension): ineffective; also recorded: no bactericidal effect | MIC ([5]; Salmonella enterica): 625 µg/mL
